Assay results from patent US11149230B2, “Process for extracting carboxylic acids produced by anaerobic fermentation from fermentable biomass” (AFYREN, priority 2015, dated 2021).

Experiments:
[1] = tested on: optimized anaerobic microbial mix; test: Test 3: comparison of fermentation in the presence or absence of octanoic acid; assay type: cell-based; conditions: restoration waste 50 g/l dry matter, initial addition of 0.7 g/l
Method: Two fermentations of grass cuttings/mowings in non-sterile mode, at a concentration of 25 g/l of dry matter, in an anaerobic bioreactor with a working volume of 2 l, operated in mesophilic mode (38° C.), were carried out in parallel for 160 h. In the first experiment, after inoculation of an optimized anaerobic microbial mix, an initial addition of heptanoic acid in an amount of 2.8 g/l was carried out. […] The second fermentation, which is de facto a control culture, was carried out in parallel under the same conditions except for the addition of heptanoic acid.

[2] = tested on: optimized anaerobic microbial mix; test: Test 2: comparison of fermentations in the presence or absence of heptanoic acid; assay type: cell-based; conditions: grass cuttings/mowings 25 g/l dry matter, 38° C., 160 h, initial addition of 2.8 g/l
Method: Two fermentations of grass cuttings/mowings in non-sterile mode, at a concentration of 25 g/l of dry matter, in an anaerobic bioreactor with a working volume of 2 l, operated in mesophilic mode (38° C.), were carried out in parallel for 160 h. In the first experiment, after inoculation of an optimized anaerobic microbial mix, an initial addition of heptanoic acid in an amount of 2.8 g/l was carried out. This presence of heptanoic acid makes it possible to understand the biocompatible nature of an extraction carried out with this type of solvent. Indeed, the culture medium after extraction is reintroduced into the bioreactor and may contain traces of extraction solvent up to the amount of their solubility threshold. The second fermentation, which is de facto a control culture, was carried out in parallel under the same conditions except for the addition of heptanoic acid.
During these fermentations, liquid-phase and gas-phase metabolite monitorings were carried out. At the end of fermentation, the yields obtained regarding the production of volatile fatty acids is 0.33 g of VFA/g of dry matter in the case of the experiment with the addition of heptanoic acid, and 0.39 g of VFA/g of dry matter for the control fermentation. […]

Row | Compound | yield of production of volatile fatty acids at the end of fermentation [1] | negative effect on the production of volatile fatty acids versus control fermentation [2] | yield of production of volatile fatty acids at the end of fermentation [2]
1 | CCCCCCCC(=O)O [octanoic acid, Octanoic acid] | 0.3 g of VFA/g of dry matter |  | 
2 | CCCCCCC(=O)O [heptanoic acid, Heptanoic acid] |  | about 15% | 0.33 g of VFA/g of dry matter
